Consider 31 compounds from ChEMBL document CHEMBL4808169, “Discovery of Potent and Fast-Acting Antimalarial Bis-1,2,4-triazines” (J Med Chem, 2021).

The test system of data set [1] is Plasmodium falciparum. Kind of data set: microbe, parasite or virus in culture. Conditions: 3D7, 72 h.
Description: Antimalarial activity against Plasmodium falciparum 3D7 infected in human red blood cells after 72 hrs by DAPI-staining based assay
Data set [2] in a line: Kinetic solubility of compound at pH 6.5 by nephelometry. Type of data set: physicochemical. The settings on record: buffer, read-out: Kinetic_solubility.
The nature of data set [3]: Kinetic solubility of compound at pH 2 by nephelometry. The data set is classed as physicochemical. Conditions: buffer, read-out: Kinetic_solubility.
Data set [4] deals with Plasmodium falciparum. In words: Antimalarial activity against Plasmodium falciparum 3D7 infected in human red blood cells at 40 uM after 72 hrs by DAPI-staining based assay relative to control. The data set is classed as functional.
In data set [5] the test system is Plasmodium falciparum. In words: Bactericidal activity against Plasmodium falciparum 3D7A at 10 times IC50. The data set is classed as functional, organism-based.
A short description of data set [6]: Intrinsic clearance in human liver microsomes assessed per mg of protein in presence of NADPH by UPLC-MS analysis. The data set is classed as ADME, Microsome. The settings on record: read-out: CLH.
A short description of data set [7]: Half life in human liver microsomes in presence of NADPH by UPLC-MS analysis. Type of data set: ADME, Microsome. For orientation: Microsomes from liver hold many membrane-bound enzymes, among them those of drug oxidation.
A short description of data set [8]: Intrinsic clearance in mouse liver microsomes in presence of NADPH by UPLC-MS analysis. The data set is classed as ADME, Microsome.
Data set [9] can be described thus: Half life in mouse liver microsomes in presence of NADPH by UPLC-MS analysis. Type of data set: ADME, Microsome.
Another data set deals with Plasmodium berghei. Kind of data set: Antiplasmodial activity against Plasmodium berghei ANKA infected in po dosed Swiss mouse administered at 2 hrs post infection and measured on day 4 by Peter's 4-day test. The data set is classed as functional.

pIC50: −log10 of the molar value. Values after ≈ are worked out from the molar mass of the structure shown. Active and inactive are the calls of the source.

Usually pIC50 stands for the IC50 on a negative log10 scale, so that one unit is a factor of ten. Usually half-life stands for the time needed for the level to fall by half in the phase considered. The term ED50 denotes the dose that gives a 50% effect, or the effect in half of the subjects. Low readings indicate an effect at a small dose, high ones a need for a large dose.

On to `[N-]=[N+]=NCCCSc1nncc(-c2cnnc(SCCCN=[N+]=[N-])n2)n1`, for which the pIC50 in the data set on Plasmodium falciparum [1] is 7.51. `CSc1nncc(-c2cnnc(SCCCN=[N+]=[N-])n2)n1` gave a pIC50 with Plasmodium falciparum [1] of 8.36. `C#CCSc1nncc(-c2cnnc(SC)n2)n1`: the pIC50 with Plasmodium falciparum [1] was 7.49. Compound `c1nnc(OC2CC2)nc1-c1cnnc(OC2CC2)n1` gave a pIC50 with Plasmodium falciparum [1] of 6.05. In the case of `CSc1nncc(-c2cnnc(SCCN(C)C)n2)n1`, the solubility kinetic in data set [2] and in data set [3] was 6.3 µg/mL (≈ 20.4 µM) each time. As to `FC(F)(F)COc1nncc(-c2cnnc(OCC(F)(F)F)n2)n1`, in the data set with Plasmodium falciparum [1], the pIC50 is 6.38. On the same count and under the same terms, the result for `COc1nncc(-c2cnnc(SCCN(C)C)n2)n1` reads 6.07; that for `COCCSc1nncc(-c2cnnc(SCCN(C)C)n2)n1`, 6.59.

In the case of `FC(F)(F)CCOc1nncc(-c2cnnc(OCCC(F)(F)F)n2)n1`, the negative logarithm of the IC50 (pIC50) with Plasmodium falciparum [1] was 7.03.

The compound `CC(C)Sc1nncc(-c2cnnc(SCCN(C)C)n2)n1` gave a pIC50 with Plasmodium falciparum [1] of 6.68. In the data set on Plasmodium falciparum [4], `COCCOc1nncc(-c2cnnc(OCCOC)n2)n1` yielded an Activity of 100%. `C#CCOc1nncc(-c2cnnc(SC)n2)n1` gave a pIC50 in the data set with Plasmodium falciparum [1] of 6.89. As to `CCN(CC)CCCC(C)Nc1ccnc2cc(Cl)ccc12` (configuration not stated) [CHLOROQUINE], in the data set on Plasmodium falciparum [5], the outcome was Active. Regarding `CCCCc1nncc(-c2cnnc(SCCN(C)C)n2)n1`, the microsomal CLint in [6] stood at 56 µL/min/mg; in data set [8], 330 µL/min/mg. Moreover, the half-life in [7] stood at 31 min; in data set [9], 5 min. The figures for the solubility kinetic in data set [2] and in data set [3] were 25 µg/mL (≈ 78.3 µM) and 50 µg/mL (≈ 157 µM), respectively. The pIC50 with Plasmodium falciparum [1] was 8.05.

Turning to `CC(C)Oc1nncc(-c2cnnc(SCCN(C)C)n2)n1`, the pIC50 in the data set on Plasmodium falciparum [1] is 7.09.

In the data set on Plasmodium falciparum [1], `CN(C)CCOc1nncc(-c2cnnc(OCCN(C)C)n2)n1` had a pIC50 of 5.07. The same measure, in the same setting: as for `CCCOc1nncc(-c2cnnc(SCCN(C)C)n2)n1`, the figure is 7.96; as for `CC(C)Sc1nncc(-c2cnnc(OCCN(C)C)n2)n1`, 7.92. Regarding `C[C@H]1[C@H](OC(=O)CCC(=O)O)O[C@@H]2O[C@@]3(C)CC[C@H]4[C@H](C)CC[C@@H]1[C@@]24OO3` [ARTESUNATE], in the data set on Plasmodium berghei, it took a dose of 1.37 mg/kg/day to reach the 50% effect level (ED50). Further, the result in the data set with Plasmodium falciparum [5] was Active. `C[Si](C)(C)CCOc1nncc(-c2cnnc(OCC[Si](C)(C)C)n2)n1` gave a pIC50 in the data set on Plasmodium falciparum [1] of 6.14. In the case of `CC(C)Oc1nncc(-c2cnnc(OC(C)C)n2)n1`, in the data set on Plasmodium falciparum [1], the pIC50 is 5.70. In turn, `CSc1nncc(-c2cnnc(OC(C)CN(C)C)n2)n1` (configuration not stated) gave a negative-log IC50 (pIC50) in the data set on Plasmodium falciparum [1] of 7.49. `CC(C)Oc1nncc(-c2cnnc(OCCN(C)C)n2)n1` had a pIC50 in the data set with Plasmodium falciparum [1] of 6.36.

In turn, `Cc1ncsc1CCOc1nncc(-c2cnnc(OCCc3scnc3C)n2)n1` gave a pIC50 with Plasmodium falciparum [1] of 6.30.

`CC#CCOc1nncc(-c2cnnc(OCC#CC)n2)n1`: the pIC50 with Plasmodium falciparum [1] was 6.00.

As for `CCc1nncc(-c2cnnc(SCCN(C)C)n2)n1`, the microsomal CLint amounted to 9 µL/min/mg in data set [6] and 118 µL/min/mg in data set [8]. Moreover, the half-life worked out at 199 min in data set [7] and 15 min in [9]. Also, the solubility kinetic in data set [2] amounted to 25 µg/mL (≈ 85.8 µM); in data set [3], 50 µg/mL (≈ 172 µM). Also, the pIC50 in the data set on Plasmodium falciparum [1] is 6.92. Compound `CC(CN(C)C)Oc1nncc(-c2cnnc(OC(C)CN(C)C)n2)n1` (configuration not stated) showed a pIC50 with Plasmodium falciparum [1] of 4.92. On to `CCCCc1nncc(-c2cnnc(OCCN(C)C)n2)n1`, for which the figures for the microsomal CLint in data set [6] and in data set [8] were 25 µL/min/mg and 109 µL/min/mg, respectively. Moreover, the half-life in data set [7] came out at 69 min; in data set [9], 16 min. For the same compound, the solubility kinetic in data set [2] and in [3] was 25 µg/mL (≈ 82.4 µM) throughout. This compound had a pIC50 with Plasmodium falciparum [1] of 7.52.

For the compound `CN(C)CCOc1nncc(-c2cnnc(OCCC(F)(F)F)n2)n1`, the microsomal CLint amounted to 7 µL/min/mg in data set [6] and 33 µL/min/mg in [8]. Also, the half-life in [7] came out at 232 min; in data set [9], 53 min. The solubility kinetic in data set [2] and in data set [3] was 50 µg/mL (≈ 139 µM) each time. Further, the negative logarithm of the IC50 (pIC50) in the data set on Plasmodium falciparum [1] is 7.27. Compound `CCCOc1nncc(-c2cnnc(OCCC)n2)n1` had a pIC50 in the data set with Plasmodium falciparum [1] of 6.96. As for `CCCCc1nncc(-c2cnnc(CCCC)n2)n1`, the negative-log IC50 (pIC50) with Plasmodium falciparum [1] is 6.47.
